# Measurements taken from patent US11839639B2, “Inhibition of androgen receptor by extracts of medicinal herbs and compositions thereof” (YALE UNIVERSITY, priority 2017, dated 2023).
# “Also recorded” adds a separate entry of the source.
# Assays:
# [1] = molecular target: androgen receptor (Homo sapiens, UniProt P10275); assay: PSA promoter luciferase reporter assay, 22RV1 AR-luciferase reporter cells; format: cell-based; conditions: for anti-androgen receptor (AR) activity, luciferase reporter assay: 22RV1 AR-luciferase reporter cells, with DHT; for anti-androgen receptor activity, luciferase reporter assay: in present of DHT 10 nM
# androgen receptor, sequence (P10275 whole entry): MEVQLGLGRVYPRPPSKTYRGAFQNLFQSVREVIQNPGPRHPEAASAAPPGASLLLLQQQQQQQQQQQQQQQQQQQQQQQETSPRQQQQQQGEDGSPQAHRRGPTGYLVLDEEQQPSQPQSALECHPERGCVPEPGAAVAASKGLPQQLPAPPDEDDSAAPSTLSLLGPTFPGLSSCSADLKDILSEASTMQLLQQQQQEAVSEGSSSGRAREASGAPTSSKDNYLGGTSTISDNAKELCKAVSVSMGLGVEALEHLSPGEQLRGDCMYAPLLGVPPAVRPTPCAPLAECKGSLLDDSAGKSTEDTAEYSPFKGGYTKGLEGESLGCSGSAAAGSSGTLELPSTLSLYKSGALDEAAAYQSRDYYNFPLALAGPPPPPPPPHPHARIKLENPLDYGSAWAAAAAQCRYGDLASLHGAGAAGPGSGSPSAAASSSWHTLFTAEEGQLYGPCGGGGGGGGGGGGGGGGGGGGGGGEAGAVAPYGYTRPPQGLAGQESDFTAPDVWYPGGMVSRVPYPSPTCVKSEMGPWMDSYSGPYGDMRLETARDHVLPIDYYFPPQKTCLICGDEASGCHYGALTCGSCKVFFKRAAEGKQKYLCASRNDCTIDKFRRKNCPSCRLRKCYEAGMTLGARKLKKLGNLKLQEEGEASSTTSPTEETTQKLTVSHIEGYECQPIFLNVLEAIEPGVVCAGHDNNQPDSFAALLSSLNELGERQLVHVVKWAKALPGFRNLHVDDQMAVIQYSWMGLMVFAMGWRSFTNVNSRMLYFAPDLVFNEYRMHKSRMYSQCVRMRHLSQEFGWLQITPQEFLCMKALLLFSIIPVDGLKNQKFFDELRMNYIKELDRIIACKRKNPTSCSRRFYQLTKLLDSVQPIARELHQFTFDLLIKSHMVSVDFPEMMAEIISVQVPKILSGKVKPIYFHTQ
# Procedure: 22RV1 prostate cancer cells were used in the screening study. 22RV1 cell lines were stably transfected with PSA promoter-PGL4.2 luciferase reporter. 25 nM) H T was used to induce androgen receptor for 24 h.
# 22RV1 androgen reporter cells were treated with herbal extracts at 30, 100, 300, and 1000 μg/ml for 24 h in a 37° C.-CO2 incubator with or without 25 nM DHT which was used androgen receptor activity. Cells were lysed using luciferase lysis buffer after which luciferase buffer with luciferin was added to generate luminescence. Luminescence was recorded using a luminescence microplate reader.
# [2] = test system: LNCaP (androgen dependent) xenograft tumor; assay: LNCaP xenograft tumor growth; format: in vivo, nude mice; conditions: S6, F5, PE1 each 300 mg/kg bid; enzalutamide 10 mg/kg qd; two weeks
# Procedure: (§1) In another animal experiment, we compared the anti-prostate tumor growth effect of S6, F5, and PE1 (each 300 mg/kg bid) to enzalutamide (10 mg/kg qd) (targeting on AR) on LNCaP (androgen dependent) xenograft tumor and Du145 xenograft tumor in nude mice for two weeks.
# [3] = test system: DU145 xenograft; assay: DU145 xenograft tumor growth; format: in vivo, mouse; conditions: nude mice
# Procedure: as §1
# [4] = test system: 22RV1 xenograft; assay: 22RV1 xenograft tumor growth; format: in vivo, mouse; conditions: gallic acid 23 mg/kg BID orally, nude mice
# Text: E5 may have higher selectively to inhibit prostate cancer with AR protein in vivo. I2 may have higher selectively to inhibit prostate cancer without AR protein expression in vivo.
SMILES,"anti-androgen receptor (AR) activity, luciferase reporter assay [1]","anti-androgen receptor activity, luciferase reporter assay [1]",further results
Oc1cc(O)c2c(c1)O[C@H](c1cc(O)c(O)c(O)c1)[C@H](O)C2 [Epigallocatechin],showed inhibition; also recorded: different potency on inhibiting AR,highest potency against AR,
"CNC(=O)c1ccc(N2C(=S)N(c3ccc(C#N)c(C(F)(F)F)c3)C(=O)C2(C)C)cc1F [enzalutamide, reference compound]",,,"growth of LNCaP xenograft tumor [2]: effectively inhibited; growth of Du145 xenograft tumor ([3]; S6, F5, PE1 each 300 mg/kg bid, enzalutamide 10 mg/kg qd, two weeks): not Du145 tumors"
O=C(O)c1cc(O)c(O)c(O)c1 [gallic acid],,,"in vivo anti-tumor activity, 22RV1 tumor [4]: exhibit in vivo anti-tumor activity; in vivo anti-tumor activity, Du145 tumor ([3]; gallic acid 23 mg/kg BID orally): exhibit in vivo anti-tumor activity"
Oc1cc(O)c2c(c1)O[C@H](c1cc(O)c(O)c(O)c1)[C@@H](O)C2 [gallocatechin],showed inhibition; also recorded: different potency on inhibiting AR,found to have anti-androgen receptor activity,
O=C(O)c1cc(O)c2c(c1)[C@H]([C@H]1c3cc(CO)cc(O)c3C(=O)c3c(O[C@@H]4O[C@H](CO)[C@@H](O)[C@H](O)[C@H]4O)cccc31)c1cccc(O[C@@H]3O[C@H](CO)[C@@H](O)[C@H](O)[C@H]3O)c1C2=O [sennoside C],no,,
O=C(O)c1cc(O)c2c(c1)[C@H]([C@@H]1c3cc(CO)cc(O)c3C(=O)c3c(O[C@@H]4O[C@H](CO)[C@@H](O)[C@H](O)[C@H]4O)cccc31)c1cccc(O[C@@H]3O[C@H](CO)[C@@H](O)[C@H](O)[C@H]3O)c1C2=O [sennoside D],no,,
